# Measured values from article PMC7915588, “Polyphyllin D Shows Anticancer Effect through a Selective Inhibition of Src Homology Region 2-Containing Protein Tyrosine Phosphatase-2 (SHP2)” (Molecules, 2021).
# Columns and labels:
# SHP2 = target: T1, SHP2 (Homo sapiens, UniProt Q06124); experiment: biochemical; set-up: Fluorogenic phosphatase assay, DiFMUP hydrolysis by recombinant PTPs, initial velocity, Ex/Em 355/460 nm; conditions: read-out: Inhibition by 20 µM polyphyllin D (%)
# T1 construct: gene PTPN11
# T1 sequence (Q06124 1-526): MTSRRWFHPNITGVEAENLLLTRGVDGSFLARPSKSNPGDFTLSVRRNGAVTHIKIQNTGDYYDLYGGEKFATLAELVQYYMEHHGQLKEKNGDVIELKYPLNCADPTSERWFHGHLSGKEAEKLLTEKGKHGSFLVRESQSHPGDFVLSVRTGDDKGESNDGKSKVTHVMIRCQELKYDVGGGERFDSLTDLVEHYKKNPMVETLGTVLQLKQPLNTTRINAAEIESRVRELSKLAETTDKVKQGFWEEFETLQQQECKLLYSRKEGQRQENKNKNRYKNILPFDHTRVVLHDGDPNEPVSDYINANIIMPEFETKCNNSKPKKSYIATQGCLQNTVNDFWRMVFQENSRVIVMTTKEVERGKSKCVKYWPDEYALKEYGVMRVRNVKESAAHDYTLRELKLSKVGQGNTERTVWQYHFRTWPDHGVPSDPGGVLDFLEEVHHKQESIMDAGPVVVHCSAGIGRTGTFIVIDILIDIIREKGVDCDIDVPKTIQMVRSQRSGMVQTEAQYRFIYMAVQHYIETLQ
# PTPN3 (PTPH1) = target: T2, PTPN3 (PTPH1) (Homo sapiens, UniProt P26045); experiment: biochemical; set-up: Fluorogenic phosphatase assay, DiFMUP hydrolysis by recombinant PTPs, initial velocity, Ex/Em 355/460 nm; conditions: read-out: Inhibition by 20 µM polyphyllin D (%)
# T2 construct: 403-913
# T2 sequence (P26045 1-913): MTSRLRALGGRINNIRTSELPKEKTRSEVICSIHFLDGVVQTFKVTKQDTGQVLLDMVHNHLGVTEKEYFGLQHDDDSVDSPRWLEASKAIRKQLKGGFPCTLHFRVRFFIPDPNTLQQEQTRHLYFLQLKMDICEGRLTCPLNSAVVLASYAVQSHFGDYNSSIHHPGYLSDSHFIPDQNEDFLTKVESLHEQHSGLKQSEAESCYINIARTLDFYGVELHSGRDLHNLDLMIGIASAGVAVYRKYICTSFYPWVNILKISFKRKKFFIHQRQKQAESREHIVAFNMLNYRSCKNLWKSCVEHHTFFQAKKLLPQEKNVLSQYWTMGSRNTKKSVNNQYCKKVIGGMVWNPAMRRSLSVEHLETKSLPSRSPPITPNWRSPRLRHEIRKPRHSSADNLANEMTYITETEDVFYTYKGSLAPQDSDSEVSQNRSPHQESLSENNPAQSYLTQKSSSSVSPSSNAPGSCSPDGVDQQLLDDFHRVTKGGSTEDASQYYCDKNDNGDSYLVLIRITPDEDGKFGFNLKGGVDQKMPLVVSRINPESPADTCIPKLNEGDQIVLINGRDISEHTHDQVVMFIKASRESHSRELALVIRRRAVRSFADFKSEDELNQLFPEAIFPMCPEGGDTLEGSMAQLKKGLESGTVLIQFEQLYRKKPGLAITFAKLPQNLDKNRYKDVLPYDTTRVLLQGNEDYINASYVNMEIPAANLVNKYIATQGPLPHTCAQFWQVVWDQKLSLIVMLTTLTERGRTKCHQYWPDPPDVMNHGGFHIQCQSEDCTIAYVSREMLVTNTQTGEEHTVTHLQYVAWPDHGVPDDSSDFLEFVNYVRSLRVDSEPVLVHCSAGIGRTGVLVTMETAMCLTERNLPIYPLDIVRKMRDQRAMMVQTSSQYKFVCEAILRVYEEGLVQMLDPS
compound,measurement,setting,value
C[C@@H]1CC[C@@]2(OC1)O[C@H]1C[C@H]3[C@@H]4CC=C5C[C@@H](O[C@@H]6O[C@H](CO)[C@@H](O[C@@H]7O[C@@H](CO)[C@H](O)[C@H]7O)[C@H](O)[C@H]6O[C@@H]6O[C@@H](C)[C@H](O)[C@@H](O)[C@H]6O)CC[C@]5(C)[C@H]4CC[C@]3(C)[C@H]1[C@@H]2C [polyphyllin D],inhibition at 20 µM,SHP2,85.6%
same,inhibition at 20 µM,PTPN3 (PTPH1),0%
